Reference: patent US10167262B2, “Herbicidal substituted 3-arylpyrazoles” (FMC CORPORATION, priority 2014, dated 2019)

How the values were obtained:
Assay in all cases: Test E pre-/postemergence greenhouse test, plant response rating 0-100
Type in all cases: in vivo
soybean (Glycine max) = settings: Postemergence, scale 0 to 100
In short: (§1)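 Pre: seeded silt loam sprayed; post: 1–4-leaf plants (2–18 cm) in peat-based mix sprayed. Formulation: non-phytotoxic solvent + surfactant. Greenhouse 14–21 d; visual rating vs controls, 0 = no effect, 100 = complete control.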

[1] = test system: hairy beggarticks (Bidens pilosa); settings: Postemergence, scale 0 to 100
In short: as §1

[2] = test system: sandbur (southern sandbur, Cenchrus echinatus); settings: Postemergence, scale 0 to 100
In short: as §1

[3] = test system: barnyardgrass (Echinochloa crus-galli); settings: Postemergence, scale 0 to 100
In short: as §1

corn (Zea mays) = settings: Postemergence, scale 0 to 100
In short: as §1

[4] = test system: waterhemp (common waterhemp, Amaranthus rudis); settings: Postemergence, scale 0 to 100
In short: as §1

[5] = test system: arrowleaf sida (Sida rhombifolia); settings: Postemergence
In short: as §1

[6] = test system: palmer pigweed (Amaranthus palmeri); settings: Postemergence, scale 0 to 100
In short: as §1

[7] = test system: wild poinsettia (Euphorbia heterophylla); settings: for Plant response rating, Poinsettia, Wild: Postemergence, scale 0 to 100
In short: as §1

[8] = test system: Brazilian crabgrass (Digitaria horizontalis); settings: Postemergence, scale 0 to 100
In short: as §1

[9] = test system: fall panicum (Panicum dichotomiflorum); settings: Panicum dichotomiflorum, post-emergence, Postemergence, scale 0 to 100
In short: as §1

[10] = Euphorbia heterophylla, post-emergence, read-out: Plant response rating, Poinsettia, Wild

Compound: Fc1ccc(NN=C(c2ccccc2)c2c[nH]nc2-c2cc(Cl)cc(Cl)c2)cc1 [Compound 35]
- Plant response rating, Soybean (soybean (Glycine max); 31 g ai/ha): 0
- Plant response rating, Soybean (soybean (Glycine max); 62 g ai/ha): 0
- Plant response rating, Soybean (soybean (Glycine max); 125 g ai/ha): 0
- Plant response rating, Soybean (soybean (Glycine max); 250 g ai/ha): 0
- Plant response rating, Soybean (soybean (Glycine max); 500 g ai/ha): 0
- Plant response rating, Beggarticks ([1]; 31 g ai/ha): 85
- Plant response rating, Beggarticks ([1]; 62 g ai/ha): 98
- Plant response rating, Beggarticks ([1]; 125 g ai/ha): 98
- Plant response rating, Beggarticks ([1]; 250 g ai/ha): 98
- Plant response rating, Beggarticks ([1]; 500 g ai/ha): 100
- Plant response rating, Sandbur ([2]; 31 g ai/ha): 0
- Plant response rating, Sandbur ([2]; 62 g ai/ha): 0
- Plant response rating, Sandbur ([2]; 125 g ai/ha): 0
- Plant response rating, Sandbur ([2]; 250 g ai/ha): 0
- Plant response rating, Sandbur ([2]; 500 g ai/ha): 0
- Plant response rating, Barnyardgrass ([3]; 31 g ai/ha): 0
- Plant response rating, Barnyardgrass ([3]; 62 g ai/ha): 0
- Plant response rating, Barnyardgrass ([3]; 125 g ai/ha): 0
- Plant response rating, Barnyardgrass ([3]; 250 g ai/ha): 0
- Plant response rating, Barnyardgrass ([3]; 500 g ai/ha): 0
- Plant response rating, Corn (corn (Zea mays); 31 g ai/ha): 0
- Plant response rating, Corn (corn (Zea mays); 62 g ai/ha): 0
- Plant response rating, Corn (corn (Zea mays); 125 g ai/ha): 0
- Plant response rating, Corn (corn (Zea mays); 250 g ai/ha): 0
- Plant response rating, Corn (corn (Zea mays); 500 g ai/ha): 0
- Plant response rating, Waterhemp ([4]; 62 g ai/ha): 85
- Plant response rating, Waterhemp ([4]; 125 g ai/ha): 95
- Plant response rating, Waterhemp ([4]; 250 g ai/ha): 98
- Plant response rating, Waterhemp ([4]; 500 g ai/ha): 100
- Plant response rating, Arrowleaf Sida ([5]; 31 g ai/ha, scale 0 to 100): 50
- Plant response rating, Arrowleaf Sida ([5]; 62 g ai/ha, scale 0 to 100): 60
- Plant response rating, Arrowleaf Sida ([5]; 125 g ai/ha, scale 0 to 100): 70
- Plant response rating, Arrowleaf Sida ([5]; 250 g ai/ha, scale 0 to 100): 80
- Plant response rating, Arrowleaf Sida ([5]; 500 g ai/ha, scale 0 to 100 (0 no effect, 100 complete control)): 90
- Plant response rating, Pigweed, Palmer ([6]; 31 g ai/ha): 75
- Plant response rating, Pigweed, Palmer ([6]; 62 g ai/ha): 80
- Plant response rating, Pigweed, Palmer ([6]; 125 g ai/ha): 98
- Plant response rating, Pigweed, Palmer ([6]; 250 g ai/ha): 100
- Plant response rating, Pigweed, Palmer ([6]; 500 g ai/ha): 100
- Plant response rating, Poinsettia, Wild ([7]; 31 g ai/ha): 0
- Plant response rating, Poinsettia, Wild ([7]; 62 g ai/ha): 0
- Plant response rating, Poinsettia, Wild ([7]; 125 g ai/ha): 0
- Plant response rating, Poinsettia, Wild ([7]; 250 g ai/ha): 0
- Plant response rating, Poinsettia, Wild ([7]; 500 g ai/ha): 0
- Plant response rating, Crabgrass, Brazil ([8]; 31 g ai/ha): 0
- Plant response rating, Crabgrass, Brazil ([8]; 62 g ai/ha): 0
- Plant response rating, Crabgrass, Brazil ([8]; 125 g ai/ha): 0
- Plant response rating, Crabgrass, Brazil ([8]; 250 g ai/ha): 0
- Plant response rating, Crabgrass, Brazil ([8]; 500 g ai/ha): 10

Compound: CCCn1cc(C(=O)c2ccccc2)c(-c2cc(Cl)cc(Cl)c2)n1 [Compound 61, [3-(3,5-dichlorophenyl)-1-propyl-1H-pyrazol-4-yl]phenylmethanone]
- pest or weed control at 31 g/ha ([9]; 31 g ai/ha): 0%
- pest or weed control at 62 g/ha ([9]; 62 g ai/ha): 0%
- pest or weed control at 125 g/ha ([9]; 125 g ai/ha): 0%
- pest or weed control at 250 g/ha ([9]; 250 g ai/ha): 0%
- pest or weed control at 500 g/ha ([9]; 500 g ai/ha): 0%
- plant injury at 31 g/ha (soybean (Glycine max); Glycine max, post-emergence, 31 g ai/ha): 0%
- plant injury at 62 g/ha (soybean (Glycine max); Glycine max, post-emergence, 62 g ai/ha): 0%
- plant injury at 125 g/ha (soybean (Glycine max); Glycine max, post-emergence, 125 g ai/ha): 0%
- plant injury at 250 g/ha (soybean (Glycine max); Glycine max, post-emergence, 250 g ai/ha): 0%
- plant injury at 500 g/ha (soybean (Glycine max); Glycine max, post-emergence, 500 g ai/ha): 10%
- pest or weed control at 31 g/ha ([2]; Cenchrus echinatus, post-emergence, 31 g ai/ha): 0%
- pest or weed control at 62 g/ha ([2]; Cenchrus echinatus, post-emergence, 62 g ai/ha): 0%
- pest or weed control at 125 g/ha ([2]; Cenchrus echinatus, post-emergence, 125 g ai/ha): 0%
- pest or weed control at 250 g/ha ([2]; Cenchrus echinatus, post-emergence, 250 g ai/ha): 0%
- pest or weed control at 500 g/ha ([2]; Cenchrus echinatus, post-emergence, 500 g ai/ha): 0%
- pest or weed control at 31 g/ha ([3]; Echinochloa crus-galli, post-emergence, 31 g ai/ha): 0%
- pest or weed control at 62 g/ha ([3]; Echinochloa crus-galli, post-emergence, 62 g ai/ha): 0%
- pest or weed control at 125 g/ha ([3]; Echinochloa crus-galli, post-emergence, 125 g ai/ha): 0%
- pest or weed control at 250 g/ha ([3]; Echinochloa crus-galli, post-emergence, 250 g ai/ha): 10%
- pest or weed control at 500 g/ha ([3]; Echinochloa crus-galli, post-emergence, 500 g ai/ha): 20%
- Corn plant response rating (crop injury, 0 = no effect, 100 = complete kill) at 31 g/ha (corn (Zea mays); Zea mays, post-emergence, 31 g ai/ha): 0%
- Corn plant response rating (crop injury, 0 = no effect, 100 = complete kill) at 62 g/ha (corn (Zea mays); Zea mays, post-emergence, 62 g ai/ha): 0%
- Corn plant response rating (crop injury, 0 = no effect, 100 = complete kill) at 125 g/ha (corn (Zea mays); Zea mays, post-emergence, 125 g ai/ha): 0%
- Corn plant response rating (crop injury, 0 = no effect, 100 = complete kill) at 250 g/ha (corn (Zea mays); Zea mays, post-emergence, 250 g ai/ha): 0%
- Corn plant response rating (crop injury, 0 = no effect, 100 = complete kill) at 500 g/ha (corn (Zea mays); Zea mays, post-emergence, 500 g ai/ha): 0%
- pest or weed control at 31 g/ha ([4]; Amaranthus tuberculatus, post-emergence, 31 g ai/ha): 20%
- pest or weed control at 62 g/ha ([4]; Amaranthus tuberculatus, post-emergence, 62 g ai/ha): 30%
- pest or weed control at 125 g/ha ([4]; Amaranthus tuberculatus, post-emergence, 125 g ai/ha): 75%
- pest or weed control at 250 g/ha ([4]; Amaranthus tuberculatus, post-emergence, 250 g ai/ha): 100%
- pest or weed control at 31 g/ha ([5]; Sida rhombifolia, post-emergence, 31 g ai/ha, scale 0 to 100): 30%
- pest or weed control at 62 g/ha ([5]; Sida rhombifolia, post-emergence, 62 g ai/ha, scale 0 to 100): 40%
- pest or weed control at 125 g/ha ([5]; Sida rhombifolia, post-emergence, 125 g ai/ha, scale 0 to 100): 40%
- pest or weed control at 250 g/ha ([5]; Sida rhombifolia, post-emergence, 250 g ai/ha, scale 0 to 100): 60%
- pest or weed control at 500 g/ha ([5]; Sida rhombifolia, post-emergence, 500 g ai/ha, scale 0 to 100 (0 no effect, 100 complete control)): 70%
- pest or weed control at 31 g/ha ([6]; Amaranthus palmeri, post-emergence, 31 g ai/ha): 50%
- pest or weed control at 62 g/ha ([6]; Amaranthus palmeri, post-emergence, 62 g ai/ha): 60%
- pest or weed control at 125 g/ha ([6]; Amaranthus palmeri, post-emergence, 125 g ai/ha): 60%
- pest or weed control at 250 g/ha ([6]; Amaranthus palmeri, post-emergence, 250 g ai/ha): 80%
- pest or weed control at 500 g/ha ([6]; Amaranthus palmeri, post-emergence, 500 g ai/ha): 95%
- pest or weed control at 31 g/ha [7, 10]: 0%
- pest or weed control at 62 g/ha [7, 10]: 0%
- pest or weed control at 125 g/ha [7, 10]: 0%
- pest or weed control at 250 g/ha [7, 10]: 10%
- pest or weed control at 500 g/ha [7, 10]: 30%
- pest or weed control at 31 g/ha ([8]; Digitaria horizontalis, post-emergence, 31 g ai/ha, read-out: Plant response rating, Crabgrass, Brazil): 0%
- pest or weed control at 62 g/ha ([8]; Digitaria horizontalis, post-emergence, 62 g ai/ha, read-out: Plant response rating, Crabgrass, Brazil): 0%
- pest or weed control at 125 g/ha ([8]; Digitaria horizontalis, post-emergence, 125 g ai/ha, read-out: Plant response rating, Crabgrass, Brazil): 0%
- pest or weed control at 250 g/ha ([8]; Digitaria horizontalis, post-emergence, 250 g ai/ha, read-out: Plant response rating, Crabgrass, Brazil): 0%
- pest or weed control at 500 g/ha ([8]; Digitaria horizontalis, post-emergence, 500 g ai/ha, read-out: Plant response rating, Crabgrass, Brazil): 0%
